Consider two molecules from article PMC11435220, “Anticancer Activity of Imidazolyl Gold(I/III) Compounds in Non-Small Cell Lung Cancer Cell Lines” (Pharmaceuticals, 2024).

Series [1] deals with H460. Put plainly: MTT viability assay, H460. It is filed as cell-based, human. To be noted: mean ± span, 48 h treatment, cell line with KRAS mutation. The protocol:
(§1) NSCLC cell lines were obtained from the Hamon Center for Therapeutic Oncology Research (UT Southwestern Medical Center). IMR-90 human lung fibroblasts were from ATCC (CC-186). All cell lines were maintained and treated in RPMI medium (Cytiva (Shanghai, China), #SH30027), supplemented with 10% heat-inactivated FBS (Millipore Sigma (Darmstadt, Germany), F0394).
(§2) 5000–10,000 cells/0.1 mL/well were seeded in 96-well plates to achieve 70% confluence after 24 h. All drug stock solutions were prepared fresh in DMSO at a concentration of 10 mM. The day after cell plating, we added 0.1 mL of medium containing the appropriate drug dilutions. After 48 h of treatment, 10 μL of MTT solution (5 mg/mL) was added to each well. After 4 h incubation, the medium was aspirated, and the formazan salts dissolved in 200 μL DMSO/well for 10 min at 37 °C. The absorbance was read at 570 nm (OD 570 nm). Data are represented as mean ± SD of two independent experiments.
(§3) Statistical and data analysis was performed using GraphPad Prism (v10). IC50 values were calculated using a three-parameter non-linear regression model with log(inhibitor) vs. response. For the TxrR activity statistics, the groups were compared using a two-way ANOVA followed by Dunnett’s multiple comparisons with alpha = 0.05. The correlation between IC50 values and TxrR activity was achieved using Pearson correlation with alpha = 0.05.
(Formazan colour is commonly taken as a measure of viable cells.)

Series [2] is described as follows: Solution stability by UV-visible spectra over time. It is filed as physicochemical. To be noted: UV-visible spectra over time; DMSO, methanol, PBS buffered solutions. The protocol: Stability studies were led by acquiring UV−visible spectra of 100 µM DMSO or methanol solutions of compounds 1∓8 over time (Figures S19–S29 in Supplementary Materials). […] The stability of NHC-AuX3 complexes (with X = Cl, compounds 1 and 2, with X = Br, compounds 5 and 6) was affected by the nature of both the substituents on the imidazolyl ligand and of the halide, showing a small decrease of the UV bands maxima in an hour. By analyzing the spectral data of compounds 1 and 2, a percent concentration reduction of about 4–5% was estimated within an hour, grading them eligible for biological tests. The partial instability may be attributed to the formation of cationic bis-carbeneAuCl2 species (Equation (1)), with the [bis-carbeneAuX2]^+ and the respective AuX2^−; these ions were actually detected as positive and negative ions in the ESI-MS spectra (see Figures S12 and S13). […] Additionally, the (+)ESI MS spectrum of the acetonitrile solution of compound 6 is particularly rich in positive ions (Figure S16). As concerns the mono-/bis-carbene formation, it is likely initiated by the large trans effect of the carbene ligands, which induces the chemical lability on the trans halide, triggers […], the formation of bis-carbeneAu(III) species, and AuX2^− or AuX4^− anions:2[NHC-AuX3] ⇔ [[(NHC)2AuX2] [AuX2^−] + 2X(1) […]
The stability of the samples 1-8 in DMSO solution was assayed by UV-visible spectroscopy. Spectra were acquired using the Shimadzu UV-2700i spectrophotometer, equipped with the Shimadzu CPS-100 Peltier, at 293 K. Unless diversely specified, 100 µM DMSO solutions of the 1-8 compounds were prepared and spectra were acquired each 10 minutes for a total of 60 minutes. The spectra obtained are reported as following.
Figure S19. UV-Visible Spectra acquired for complex 1.
Figure S20. UV-Visible Spectra acquired for complex 2. […]

In series [3] the test system is TrxR in A549 cell lysates. Put plainly: Thioredoxin reductase activity in lysates of treated A549 cells. It is filed as cell-based, human. The conditions noted are these: for Mean Diff. TrxR activity vs. veh: A549 lysate, 24 h treatment at 5 μM. The protocol: The enzymatic activity of TrxR in the A549 and H522 cell lysates was measured using the TrxR assay Kit (Abcam ab83463) following the manufacturer’s instructions. This kit is based on the TxrR-mediated reduction of the colorless DTNB into TNB2—(yellow). Briefly, cells were plated to reach 70% confluence on a 100-mm dish in one day. They were treated with 5 μM of the gold compounds or the equivalent quantity of DMSO for 24 h. Then, cells were washed in PBS 1X, detached, and lysed in 100 μL of cold TrxR assay buffer supplemented with the Proteinase Inhibitor Cocktail. 20 μg and 40 μg of total proteins were used for the A549 and the H522, respectively. The DTNB substrate was added to samples with or without TrxR inhibitor (provided with the kit) in 96-well plates. The OD412 was measured soon after the substrate addition (A1) and then after 25, 60, 90, and 110 min (An) at 25 °C using a FLUOstar Omega Microplate Reader (BGM Labtech, Chicago, IL, USA). Data analysis was performed following the manufacturer’s instructions. The OD of TNB2, generated by TrxR in every condition, is:ΔA412 nm = (AnAB − AnINH) − (AB − A1INH) where AB is the assay buffer, and INH is the inhibitor. The TrxR activity is:(2) ΔB/Tn−T1×mg of protein lysate×sample dilution factor=(nmol/min)/mg=mU/mg where ΔB is the TNB amount calculated applying ΔA412 nm to TNB standard curve (in nmol), T1 is the time of the first reading (A1AB, and A1INH) (in min), Tn is the time of the second reading (AnAB and AnINH) (in min). The residual TxrR activity (%) was calculated by normalizing the TxrR activity for each compound with the matching vehicle values at every n time point.
as §3

Series [4] relates to H1355. Put plainly: MTT viability assay, H1355. It is filed as cell-based, human. To be noted: mean ± span, 48 h treatment, cell line with KRAS mutation. The protocol: as §1, §2, §3
The test system of series [5] is HCC-44. As to the kind of experiment: MTT viability assay, HCC-44. It is filed as cell-based, human. To be noted: mean ± span, 48 h treatment, cell line with KRAS mutation. The protocol:
as §1, §2, §3

Series [6] has as its system human NSCLC cell lines without KRAS mutations. Put plainly: MTT assay, average across NSCLC cell lines without KRAS mutations. It is filed as cell-based. To be noted: average across cell lines without KRAS mutations (H522, H661, H1395, H1993), 48 h, read-out: IC50 * averaged values. The protocol: as §1, §2, §3
The subject of series [7] is H661. Put plainly: MTT viability assay, H661. It is filed as cell-based, human. To be noted: mean ± span, 48 h treatment, cell line without KRAS mutation. The protocol: as §1, §2, §3
For series [8], the system named is H522. Put plainly: MTT viability assay, H522. It is filed as cell-based, human. The conditions noted are these: mean ± span, 48 h treatment, cell line without KRAS mutation. As for the experimental part:
as §1, §2, §3

The structures appear in SMILES notation.

For `Clc1n[c]([Au-][P+](c2ccccc2)(c2ccccc2)c2ccccc2)n(Cc2ccccc2)c1Cl` [Compound 7], the IC50 (as a rule, the point on the concentration scale where inhibition reaches its midpoint) in series [1] is 6.6 ± 1.02 µM; in series [4] it was 7.8 ± 0.61 µM; in series [5], 9.2 ± 1.02 µM; in series [6], 4 µM; in series [7] it was 0.95 ± 1 µM; in series [8] it was 6.5 ± 0.97 µM. Besides, the “stability in solution” value in series [2] is recorded as “highest stability in solution”. Further, the “Mean Diff. TrxR activity vs. veh” value in series [3] (reading at 25 min) was −59.2%; in series [3] (reading at 60 min) it was −44.4%; in series [3] (reading at 90 min) it was −56.35%; in series [3] (reading at 110 min), −53.76%.

Regarding `Cn1cc[n+](C)[c]1[Au-2]([Cl])[P+](c1ccccc1)(c1ccccc1)c1ccccc1` [Compound 8], the IC50 in series [1] came to 13 ± 1.4 µM; in series [4] it was 6.4 ± 0.65 µM; in series [5] it was 7.3 ± 1.05 µM; in series [6], 3 µM; in series [7], 1.1 ± 1.1 µM; in series [8], 3.3 ± 0.93 µM. In series [2], the “stability in solution” value is listed as “highest stability in solution”. In series [3] (A549, 24 h treatment, stated for both cell lines), the “TrxR activity reduction / inhibition” value was “more than 80%”. Moreover, the “Mean Diff. TrxR activity vs. veh” value in series [3] (reading at 25 min) is on record as −86.87%; in series [3] (reading at 60 min) it was −80.79%; in series [3] (reading at 90 min) it was −82.25%; in series [3] (reading at 110 min) it was −82.25%.
